# Key:
# Assay in all cases: relative viability (nuclei count vs DMSO), 5 days (fraction); higher = more cells survive
# [1] = test system: NCI-H1755
# Summary of the method: (§1)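 The day after seeding in 1536-well plates, lung cancer cell lines were treated by pin tool with a single drug, or with a fixed anchor-drug dose together with five library-drug doses (not always all listed) in √10 steps. After 5 days, a combined fix-and-stain solution (final 0.05% Triton X-100, 1% formaldehyde, 1 ug/ml Hoechst) was added. Nuclei counted on 4× images gave relative viability as treated counts over vehicle counts, reported as the median of duplicate plates.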
# [2] = test system: NCI-H1993
# Summary of the method: as §1
# [3] = test system: NCI-H2126
# Summary of the method: as §1
# [4] = test system: SK-LU-1
# Summary of the method: as §1
# [5] = test system: PC-14
# Summary of the method: as §1
# [6] = test system: EMC-BAC-2
# Summary of the method: as §1
# [7] = test system: LCLC-97TM1
# Summary of the method: as §1
# [8] = test system: NCI-H1975
# Summary of the method: as §1
# [9] = test system: NCI-H2009
# Summary of the method: as §1
# [10] = test system: PC-3 [JPC-3]
# Summary of the method: as §1
# [11] = test system: NCI-H2347
# Summary of the method: as §1
compound,measurement,setting,value
O=C(O)CCCCC(CCSCc1ccccc1)SCc1ccccc1 (stereo not given) [CPI-613] + C[C@@H](Oc1cc(-c2cnn(C3CCNCC3)c2)cnc1N)c1c(Cl)ccc(F)c1Cl [Crizotinib] (partner 1 µM),relative viability,[1]; first compound 5 µM,0.795
same,relative viability,[1]; first compound 15.81 µM,0.835
same,relative viability,[1]; first compound 50 µM,0.822
same,relative viability,[1]; first compound 158.11 µM,0.386
same,relative viability,[1]; first compound 500 µM,0.142
same,relative viability,[2]; first compound 5 µM,0.862
same,relative viability,[2]; first compound 15.81 µM,0.852
same,relative viability,[2]; first compound 50 µM,1.01
same,relative viability,[2]; first compound 158.11 µM,0.639
same,relative viability,[2]; first compound 500 µM,0.438
same,relative viability,[3]; first compound 5 µM,1.01
same,relative viability,[3]; first compound 15.81 µM,0.999
same,relative viability,[3]; first compound 50 µM,0.942
same,relative viability,[3]; first compound 158.11 µM,0.706
same,relative viability,[3]; first compound 500 µM,0.23
same,relative viability,[4]; first compound 5 µM,1.03
same,relative viability,[4]; first compound 15.81 µM,0.902
same,relative viability,[4]; first compound 50 µM,0.644
same,relative viability,[4]; first compound 158.11 µM,0.167
same,relative viability,[4]; first compound 500 µM,0.104
same,relative viability,[5]; first compound 5 µM,0.871
same,relative viability,[5]; first compound 15.81 µM,0.939
same,relative viability,[5]; first compound 50 µM,0.799
same,relative viability,[5]; first compound 158.11 µM,0.848
same,relative viability,[5]; first compound 500 µM,0.33
same,relative viability,[6]; first compound 5 µM,0.753
same,relative viability,[6]; first compound 15.81 µM,0.708
same,relative viability,[6]; first compound 50 µM,0.83
same,relative viability,[6]; first compound 158.11 µM,0.494
same,relative viability,[6]; first compound 500 µM,0.267
same,relative viability,[7]; first compound 5 µM,0.465
same,relative viability,[7]; first compound 15.81 µM,0.516
same,relative viability,[7]; first compound 50 µM,0.379
same,relative viability,[7]; first compound 158.11 µM,0.11
same,relative viability,[7]; first compound 500 µM,0.0433
same,relative viability,[8]; first compound 5 µM,0.931
same,relative viability,[8]; first compound 15.81 µM,0.982
same,relative viability,[8]; first compound 50 µM,0.945
same,relative viability,[8]; first compound 158.11 µM,0.499
same,relative viability,[8]; first compound 500 µM,0.0749
same,relative viability,[9]; first compound 5 µM,1.1
same,relative viability,[9]; first compound 15.81 µM,1.01
same,relative viability,[9]; first compound 50 µM,1.04
same,relative viability,[9]; first compound 158.11 µM,0.462
same,relative viability,[9]; first compound 500 µM,0.0097
same,relative viability,[10]; first compound 5 µM,0.977
same,relative viability,[10]; first compound 15.81 µM,0.89
same,relative viability,[10]; first compound 50 µM,0.889
same,relative viability,[10]; first compound 158.11 µM,0.648
same,relative viability,[10]; first compound 500 µM,0.324
same,relative viability,[11]; first compound 5 µM,0.645
same,relative viability,[11]; first compound 15.81 µM,0.555
same,relative viability,[11]; first compound 50 µM,0.695
same,relative viability,[11]; first compound 158.11 µM,0.669
same,relative viability,[11]; first compound 500 µM,0.55

# Source: the supplement of paper PMC10307832
